Data on eleven substances can be found in patent US6703362B1, “Random peptides that bind to gastro-intestinal tract (GIT) transport receptors and related methods” (Cytogen Corporation, priority 1997, dated 2004).

The subject of series [1] is fixed Caco-2 or C2BBe1 cells. Description: ELISA of GST fusion proteins on fixed Caco-2 or C2BBe1 cells. Type of series: binding. On the procedure:
Fixed Caco-2, C2BBe1, and A431 cell plates were prepared by growing cells on tissue culture treated microtiter plates. When cells were confluent, plates were fixed with 10% formaldehyde, washed twice with PBS and stored with 0.5%BSA-PBS at −20° C. […] The standard ELISA procedure was followed at this point.
The standard ELISA procedure was modified as follows. GST proteins were diluted to an appropriate concentration in PBS containing lkBSA and 0.05% Tween20 (1%BPT), titered and incubated one hour at room temperature. Following five washes an anti-GST monoclonal antibody was added (Sigma, St. Louis Clone GST-2 diluted 1:10,000 in 1%BPT) and incubated one hour. After five more washes goat anti-mouse IgG2b-HRP was added (Southern Biotechnology Associates Inc., Birmingham, Ala., diluted 1:4000 in 1%BPT) and incubated one hour. After five washes plates were developed with TMB peroxidase substrate (Kirkegard and Perry, Gaithersburg, Md.). All data is presented with background binding subtracted.

Another series relates to fixed Caco-2 cells. Description: Effect of thrombin cleavage on binding of GST-peptide fusions to fixed Caco-2 cells. The conditions noted are these: thrombin 18 h at room temperature. As to the method: Binding of intact and thrombin-cleaved GST-peptide fusions to fixed Caco-2 cells was compared.
Thirty micrograms of each GST-peptide was treated with bovine thrombin (1 μ/ml; 0.4 NIH units; Sigma CN.T9681) for 18 h at room temperature in 2OmM Tris-HCl pH8.0, 150 mM NaCl, 2.5 mM CaCl2. Controls were similarly treated without addition of thrombin. Ten micrograms of each GST-peptide fusion was removed for PAGE analysis, and 10 μg of fusions were added in duplicate to the fixed Caco-2 cells before 5-fold serial dilutions (1% BPT diluent). The fusions were allowed to bind for 1 h at room temperature. Following 6 washes with 1% BPT, binding was assayed by ELISA.

In the next series the target is BSA (Bos taurus, UniProt P02769). Description: Phage ELISA on BSA (background control protein). It is filed as binding. As to the method:
(§1) 96 well plates were coated overnight with GIT receptor, BSA and, optionally, IDE (insulin degrading enzyme, an irrelevant His-fusion protein)or hTF. The plates were 5 blocked for one hour with 0.5% BSA-PBS. After clarification, the amplified phage were diluted 1:100 in […] plus 0.05% Tween 20 in PBS and added to the plates. Following incubation of the plates on a rotator for 1 to 2 hours, the plates were washed 5 times with 1% BSA plus 0.05% Tween 20 in PBS. Dilute anti-M13-HRP conjugate (anti-M13 antibody linked to horse radish peroxidase (HRP)) was added to all the wells and the plate was incubated for one hour on a rotator. After the plates were washed 5 times, as described above, TMB substrate was added to the wells. The plates were read at 650 nm absorbance.

A short description of series [2]: Isoelectric points of synthetic peptides. It is filed as physicochemical.
For a further series, the target named is T1, D2H (Homo sapiens, UniProt Q07837).
T1 construct: 387-685; made in house
T1 sequence (Q07837 387-685): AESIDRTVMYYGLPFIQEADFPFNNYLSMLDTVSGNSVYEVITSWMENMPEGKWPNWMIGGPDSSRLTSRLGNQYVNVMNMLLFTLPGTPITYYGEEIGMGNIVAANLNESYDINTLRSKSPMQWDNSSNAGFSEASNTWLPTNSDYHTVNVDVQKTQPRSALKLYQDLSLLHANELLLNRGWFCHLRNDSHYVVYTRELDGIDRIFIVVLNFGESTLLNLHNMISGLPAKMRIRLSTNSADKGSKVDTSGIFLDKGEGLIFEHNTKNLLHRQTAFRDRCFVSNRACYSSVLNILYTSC
Description: Phage receptor ELISA on D2H. The conditions noted are these: Table 3; for D2H/BSA: ratio of D2H to BSA binding; for OD, binding to D2H: two rounds on D2H, third pan on Caco-2 snapwells. Type of series: binding. As to the method: as §1

The test system of another series is intestinal tissue. Briefly: Preselected phage libraries, rat closed loop: absorption/internalization to intestinal tissue (hybridization autoradiograph). Type of series: in vivo. The following applies: for found in the intestinal samples fractions: D2H pool of phages; for binding to the intestine / found in the intestine samples: hPEPT1 pool of phages.
The target of the next series is T2, hPEPT1 (Homo sapiens, UniProt P46059).
T2 construct: 391-571; made in house
T2 sequence (P46059 391-571): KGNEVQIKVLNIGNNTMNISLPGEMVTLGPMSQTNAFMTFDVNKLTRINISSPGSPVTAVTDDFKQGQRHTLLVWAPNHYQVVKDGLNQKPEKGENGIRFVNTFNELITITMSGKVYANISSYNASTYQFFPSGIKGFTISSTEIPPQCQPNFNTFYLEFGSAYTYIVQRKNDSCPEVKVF
Briefly: Phage receptor ELISA on hPEPT1. It is filed as binding. The following applies: for OD, binding to hPEPT1: Table 4, phage panned on hPEPT1; for PEPT1/BSA: ratio of hPEPT1 to BSA binding. On the procedure:
as §1
For orientation: ELISA stands for enzyme-linked immunosorbent assay.

Series [3] has as its system ZElan024 (P31), ZElan018 (PAX2), ZElan021 (HAX42). Description: Crossreactive binding of GST fusions to dansylated peptides.
Series [4] concerns P100 membrane fraction derived from Caco-2 cells. Briefly: GST-PAX2 peptides relative binding to P100 fractions (ratio to GST-HAX42). The conditions noted are these: 20 μg/ml GST-peptide; binding to plastic subtracted; GST-HAX42 = 1.00. On the procedure: The peptides and proteins were analyzed by a dansylated peptide ELISA method in which 96 well plates were coated overnight at 4° C. with 100 μl/well coating protein (normally 100 μg/ml P100 membrane fraction) in 0.05M carbonate buffer pH9.6. Nonspecific binding was blocked using 200 μl/well, 2% Marvel/PBS for 2 hours at 37° C. prior to incubation with dansylated peptides. The plates were washed three times with PBS/0.05% Tween 20 and after each subsequent incubation step. […] A buffer blank control was included to ensure that background binding to plastic was not due to the antibodies used in the assay system. […] The plates were then incubated with an anti-mouse X-HRP conjugated antibody (Southern Biotech 1060-05) at a 1:10,000 dilution in blocking solution, 100 μl/well for 1 hour at room temperature. Plates were developed using 75 μl/well Bionostics TMB substrate and incubated for approximately 10 minutes. The developing reaction was stopped using Bionostics Red Stop solution (25 μl/well), and the optical density of the plates was read at 650nm.
After subtraction of the GST-peptide binding to plastic from P100 binding values, the binding of GST-PAX2 peptides were represented as a ratio of GST-HAX42 binding to P100, which was given the arbitrary value of 1.00. The following ratios were determined from binding to P100 of GST-peptides at a peptide concentration of 20 μg/ml. Bold denotes positive binding to the P100 membrane fraction.

A further series addresses T3, hSI (Homo sapiens, UniProt P14410).
T3 construct: made in house
Description: Phage receptor ELISA on hSI. It is filed as binding. The following applies: for OD, binding to hSI: Table 1, phage panned on hSI, absorbance 650 nm; for hSI/BSA: ratio of hSI to BSA binding. On the procedure:
as §1

Chain of BSA (P02769 25-607): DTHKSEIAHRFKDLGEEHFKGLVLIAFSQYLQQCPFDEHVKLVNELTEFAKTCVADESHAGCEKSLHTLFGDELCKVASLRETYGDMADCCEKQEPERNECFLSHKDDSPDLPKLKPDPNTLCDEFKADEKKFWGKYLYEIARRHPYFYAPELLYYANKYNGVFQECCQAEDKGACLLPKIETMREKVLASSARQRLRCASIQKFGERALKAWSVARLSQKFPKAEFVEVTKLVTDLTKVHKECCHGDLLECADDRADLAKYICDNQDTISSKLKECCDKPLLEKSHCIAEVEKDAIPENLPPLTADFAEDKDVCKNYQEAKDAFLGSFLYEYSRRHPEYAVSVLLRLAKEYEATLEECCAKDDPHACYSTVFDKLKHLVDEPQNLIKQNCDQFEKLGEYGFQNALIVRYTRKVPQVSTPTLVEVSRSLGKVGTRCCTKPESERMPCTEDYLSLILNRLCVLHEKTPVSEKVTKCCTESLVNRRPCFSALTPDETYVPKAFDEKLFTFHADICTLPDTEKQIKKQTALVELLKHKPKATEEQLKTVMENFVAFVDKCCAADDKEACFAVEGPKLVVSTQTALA
T3 sequence (P14410 272-667): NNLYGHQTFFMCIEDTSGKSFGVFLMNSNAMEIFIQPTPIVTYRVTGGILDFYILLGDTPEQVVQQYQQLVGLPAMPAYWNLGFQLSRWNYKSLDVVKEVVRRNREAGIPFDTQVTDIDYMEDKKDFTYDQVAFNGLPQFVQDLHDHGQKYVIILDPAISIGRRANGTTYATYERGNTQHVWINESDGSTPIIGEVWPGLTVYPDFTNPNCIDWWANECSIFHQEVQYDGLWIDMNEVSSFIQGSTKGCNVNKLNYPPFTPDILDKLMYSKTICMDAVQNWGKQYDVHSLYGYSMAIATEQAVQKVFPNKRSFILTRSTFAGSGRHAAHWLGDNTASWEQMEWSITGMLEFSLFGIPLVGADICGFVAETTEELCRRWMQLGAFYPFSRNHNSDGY

Regarding “gst-RVGQCTDSDVRRPWARSCAHQGCGAGTRNSHGCITRPLRQASAH [GST-SNi10]”, the “binding to fixed Caco-2 or C2BBe1 cells relative to GST control” value in series [1] is “bound fixed Caco-2 or C2BBe1 cells”. Also, the “effect of thrombin cleavage on detection of binding” value (“effect of thrombin cleavage” below) with fixed Caco-2 cells is listed as “significantly reduced detection of binding”.

Turning to “SQGSKQCMQYRTGRLTVGSEYGCGMNPARHATPAYPARLLPRYR [DCX11]”, the “OD, binding to BSA” value at BSA (Table 3) was 0.071. For the same substance, the pI in [2] came out at 10.44. On D2H, the D2H/BSA is 3 and the “OD, binding to D2H” value was 0.222. Further, the “found in the intestinal samples fractions” value in the series with intestinal tissue is “found in the intestinal samples fractions”.

Consider gst-ENANTRKSSRSNPRGRRHP [GST-P31.103], for which the “binding of truncation to fixed Caco-2 cells relative to full-length fusion” value in series [1] is recorded as “bound almost as well as full-length P31”. Besides, the “effect of thrombin cleavage” value in the series on fixed Caco-2 cells is on record as “significantly reduced detection of binding”.

On to “SARDSGPAEDGSRAVRLNGVENANTRKSSRSNPRGRRHP [Peptide P31]”, for which the “OD, binding to BSA” value on BSA (Table 4) was 0.075. In addition, the pI in series [2] came out at 12.26. In addition, on hPEPT1, the “OD, binding to hPEPT1” value is 0.807 and the PEPT1/BSA came to 11. The “binding to the intestine / found in the intestine samples” value in the series with intestinal tissue is reported as “preferential binding”.

In the case of “gst-STPPSREAYSRPYSVDSDSDTNAKHSSHNRRLRTRSRPN [GST-PAX2]”, in series [3] (0.5 μg/ml concentration used in competition assays), the “crossreactive binding to ZElan024 (P31) and ZElan018 (PAX2)” value is on record as “no crossreactive binding”. Also, the “binding to fixed Caco-2 or C2BBe1 cells relative to GST control” value in series [1] was “bound fixed Caco-2 or C2BBe1 cells”. Also, the “Value (binding to P100 as ratio of GST-HAX42 binding)” value in series [4] came to 1.79.

As for “SPCGGSWGRFMQGGLFGGRTDGCGAHRNRTSASLEPPSSDY [SNi34]”, the “OD, binding to BSA” value on BSA (Table 1, phage panned on hSI) was found to be 0.115. For the same substance, the pI in [2] came to 8.25. Further, on hSI, the “OD, binding to hSI” value amounted to 0.761 and the hSI/BSA stood at 7.

Consider “RYKHDIGCDAGVDKKSSSVRGGCGAHSSPPRAGRGPRGTMVSRL [DCX8]”, for which the “OD, binding to BSA” value at BSA (Table 3) turned out to be 0.063. Moreover, the pI in series [2] came out at 11.03. Moreover, at D2H, the D2H/BSA came to 3 and the “OD, binding to D2H” value came out at 0.163. Besides, in the series on intestinal tissue, the “found in the intestinal samples fractions” value is “to a much lesser extent”.

“RGSTGTAGGERSGVLNLHTRDNASGSGFKPWYPSNRGHK [Peptide 5PAX5]”: the “OD, binding to BSA” value at BSA (Table 4) is listed as 0.036. The substance also gave a pI in series [2] of 11.49. Also, on hPEPT1, the “OD, binding to hPEPT1” value stood at 0.15 and the PEPT1/BSA came out at 4. Moreover, in the series on intestinal tissue, the “binding to the intestine / found in the intestine samples” value is given as “not found in the intestine samples”.

For the substance “gst-SDHALGTNLRSDNAKEPGDYNCCGNGNSTGRKVFNRRRPSAIPT [GST-HAX42]”, the “crossreactivity to ZElan018 (PAX2) and ZElan021 (HAX42)” value in [3] (5 μg/ml concentration used in competition assays) is given as “crossreactivity”. The “binding to fixed Caco-2 or C2BBe1 cells relative to GST control” value in [1] is “weak to moderate binding”. For the same substance, the “Value (binding to P100 as ratio of GST-HAX42 binding)” value in [4] is 1.00.

As to “RVGQCTDSDVRRPWARSCAHQGCGAGTRNSHGCITRPLRQASAH [SNi10]”, at BSA (Table 1, phage panned on hSI), the “OD, binding to BSA” value is reported as 0.051. This substance registered a pI in [2] of 10.45. On hSI, the “OD, binding to hSI” value is reported as 0.57 and the hSI/BSA stood at 11.

With gst-TNAKHSSHNRRLRTRSRPN [GST-PAX2.106], in [1], the “binding of truncation to fixed Caco-2 cells relative to full-length fusion” value is listed as “bound similarly to full-length PAX2”. Moreover, the “effect of thrombin cleavage” value in the series on fixed Caco-2 cells is on record as “significantly reduced detection of binding”. Further, the “Value (binding to P100 as ratio of GST-HAX42 binding)” value in [4] is 2.71.
